Drawing on patent US4572908A, “Dihydropyridines” (Pfizer Inc., priority 1982, dated 1986), this text covers IC50 for one compound.

The test system of this test is rat aorta. Put plainly: inhibition of calcium-induced contraction (change in tension) of spirally cut strips of rat aorta in K+ 45 mM saline. It is filed as cell-based. The conditions noted are these: 0.75 h, 45 millimolar potassium, 2 millimolar calcium, 45 minutes, read-out: IC50 (molar concentration required to reduce the response by 50%). The protocol: The ability of the compounds to inhibit the movement of calcium into the cell is shown by their effectiveness in reducing the response of isolated heart tissue to an increase in calcium ion concentration in vitro. The test is performed by mounting spirally cut strips of rat aorta with one end fixed and the other attached to a force transducer. The tissue is immersed in a bath of physiological saline solution containing potassium ions at a concentration of 45 millimolar and no calcium. Calcium chloride is added to the bath with a pipette to give a final calcium ion concentration of 2 millimolar. The change in tension caused by the resulting contraction of the tissue is noted. The bath is drained and replaced with fresh saline solution and, after 45 minutes, the test is repeated with the particular compound under test present in the saline solution. The concentration of compound required to reduce the response by 50% (IC50) is recorded.
The molar concentrations of the compounds required to reduce the response by 50% in the test specified on pages 16-17 are given below (1M=1 gm.Mole/liter).

Structures are written as SMILES.

For `CCOC(=O)C1=C(COCCNc2nc(N)n[nH]2)NC(C)=C(C(=O)OC)C1c1ccccc1Cl` (stereo not shown) [Example 1B, 2-[2-(3-Amino-1H-1,2,4-triazol-5-ylamino)ethoxymethyl]-4-(2-chlorophenyl)-3-ethoxycarbonyl-5-methoxycarbonyl-6-methyl-1,4-dihydropyridine], the IC50 came out at 20 nM.
